One test concerns S. aureus ATCC 29213. Nature of the test: microbe, parasite or virus in culture. Format: cell-based. The note with it: Staphylococcus aureus, ATCC29213; Table 1; S. aureus ATCC 29213; broth microdilution, CLSI M100-ED34; read-out: MIC. In general terms: Broth dilution looks for growth in wells or tubes with falling amounts of substance.
Another test has as its system A. baumannii 7979. Nature of the test: microbe, parasite or virus in culture. Particulars: Acinetobacter baumannii; Table 1; A. baumannii 7979; broth microdilution; read-out: MIC. Format: cell-based. On the procedure: (§1) Bacterial strains and growth conditions: All Gram-negative and Gram-positive bacterial strains (Supplementary Table S8) were cultured in Luria-Bertani (LB) or trypticase soy broth (TSB) agar plates, respectively, and incubated overnight at 37 °C unless specifically indicated. A single colony of the tested bacterial strains was inoculated into medium broth with shaking at 220 rpm for further experiments.
(§2) Minimal inhibitory concentrations: Antimicrobial susceptibility testing was performed by broth microdilution method for AMPs against Gram-positive and Gram-negative pathogens above mentioned, following the methods of document CLSI M100-ED34.[43] The MICs were defined as the lowest concentrations that inhibit visible growth of the tested bacteria. E. coli ATCC 25,922 and S. aureus ATCC 29,213 were served as quality controls.

The test system of a further test is A. baumannii AB11. The test is described as follows: microbe, parasite or virus in culture. The note with it: Acinetobacter baumannii; Table 1; A. baumannii AB11; broth microdilution; read-out: MIC. Format: cell-based. As for the experimental part: as §1, §2
The next test relates to E. coli ATCC 25922. The test is described as follows: microbe, parasite or virus in culture. Format: cell-based. The note with it: Escherichia coli, ATCC25922; Table 1; E. coli ATCC 25922; broth microdilution; read-out: MIC. As for the experimental part:
as §1, §2

A further test has as its system E. faecalis ES01. The test is described as follows: microbe, parasite or virus in culture. Format: cell-based. Particulars: Enterococcus faecalis; Table 1; E. faecalis ES01; ermB, vanB; broth microdilution; read-out: MIC. As for the experimental part: as §1, §2
Another test has as its system E. faecalis J2. The test is described as follows: microbe, parasite or virus in culture. Format: cell-based. Particulars: Enterococcus faecalis; Table 1; E. faecalis J2; ermB, optrA; broth microdilution; read-out: MIC. As for the experimental part:
as §1, §2

The test system of another test is E. faecalis JH2-2. The test is described as follows: microbe, parasite or virus in culture. Particulars: Enterococcus faecalis, JH22; Table 1; E. faecalis JH2-2; broth microdilution; read-out: MIC. Format: cell-based. On the procedure:
as §1, §2

Another test deals with E. faecalis SF23-1. The test is described as follows: microbe, parasite or virus in culture. Format: cell-based. The note with it: Enterococcus faecalis, SF231; Table 1; E. faecalis SF23-1; ermB, tetL, cfr; broth microdilution; read-out: MIC. On the procedure: as §1, §2
For a further test, the system named is E. faecium HFY01. The test is described as follows: microbe, parasite or virus in culture. Format: cell-based. The note with it: Enterococcus faecium; Table 1; E. faecium HFY01; broth microdilution; read-out: MIC. As for the experimental part: as §1, §2
The subject of another test is E. faecium MC38. The test is described as follows: microbe, parasite or virus in culture. The note with it: Enterococcus faecium; Table 1; E. faecium MC38; ermB, optrA; broth microdilution; read-out: MIC. Format: cell-based. As for the experimental part: as §1, §2
For another test, the system named is E. faecium QF31. Nature of the test: microbe, parasite or virus in culture. Format: cell-based. The note with it: Enterococcus faecium; Table 1; E. faecium QF31; ermB, cfr; broth microdilution; read-out: MIC. As for the experimental part:
as §1, §2

The next test relates to K. pneumoniae 9-1. The test is described as follows: microbe, parasite or virus in culture. Format: cell-based. The note with it: Klebsiella pneumoniae, 91; Table 1; K. pneumoniae 9-1; broth microdilution; read-out: MIC. On the procedure:
as §1, §2

The next test deals with P. aeruginosa PA14. Nature of the test: microbe, parasite or virus in culture. Format: cell-based. The note with it: Pseudomonas aeruginosa; Table 1; P. aeruginosa PA14; broth microdilution; read-out: MIC. As for the experimental part: as §1, §2
A further test concerns P. aeruginosa PAO1. Nature of the test: microbe, parasite or virus in culture. Format: cell-based. Particulars: Pseudomonas aeruginosa; Table 1; P. aeruginosa PAO1; broth microdilution; read-out: MIC. As for the experimental part:
as §1, §2

Another test has as its system S. agalactiae DL03. Nature of the test: microbe, parasite or virus in culture. Format: cell-based. The note with it: Streptococcus agalactiae; Table 1; S. agalactiae DL03; ermB; broth microdilution; read-out: MIC. As for the experimental part: as §1, §2
The next test relates to S. aureus M147-2. The test is described as follows: microbe, parasite or virus in culture. Format: cell-based. The note with it: Staphylococcus aureus, M1472; Table 1; S. aureus M147-2; ermB, tetL, cfr; broth microdilution; read-out: MIC. On the procedure: as §1, §2
A further test relates to S. aureus M92-1. The test is described as follows: microbe, parasite or virus in culture. Format: cell-based. Particulars: Staphylococcus aureus, M921; Table 1; S. aureus M92-1; ermB, tetL, optrA; broth microdilution; read-out: MIC. As for the experimental part: as §1, §2
For the next test, the system named is S. aureus YZSA-15. The test is described as follows: microbe, parasite or virus in culture. Format: cell-based. The note with it: Staphylococcus aureus, YZSA15; Table 1; S. aureus YZSA-15; ermC, vanB; broth microdilution; read-out: MIC. On the procedure:
as §1, §2

A further test concerns S. aureus YZSA-21. Nature of the test: microbe, parasite or virus in culture. The note with it: Staphylococcus aureus, YZSA21; Table 1; S. aureus YZSA-21; ermC; broth microdilution; read-out: MIC. Format: cell-based. As for the experimental part:
as §1, §2

Another test deals with S. aureus YZSA-24. Nature of the test: microbe, parasite or virus in culture. Particulars: Staphylococcus aureus, YZSA24; Table 1; S. aureus YZSA-24; ermC, mecA; broth microdilution; read-out: MIC. Format: cell-based. As for the experimental part: as §1, §2
The subject of the next test is S. pyogenes DL02. Nature of the test: microbe, parasite or virus in culture. Format: cell-based. Particulars: Streptococcus pyogenes; Table 1; S. pyogenes DL02; ermB; broth microdilution; read-out: MIC. As for the experimental part:
as §1, §2

For a further test, the system named is S. suis SH0918. Nature of the test: microbe, parasite or virus in culture. Particulars: Streptococcus suis; Table 1; S. suis SH0918; ermB, tetO, optrA; broth microdilution; read-out: MIC. Format: cell-based. As for the experimental part:
as §1, §2

A further test deals with S. suis P1/7. The test is described as follows: microbe, parasite or virus in culture. Particulars: Streptococcus suis, P1/7. On the procedure: as §1
Minimal inhibitory concentrations: Antimicrobial susceptibility testing was performed by broth microdilution method for AMPs against Gram-positive and Gram-negative pathogens above mentioned, following the methods of document CLSI M100-ED34.[43] The MICs were defined as the lowest concentrations that inhibit visible growth of the tested bacteria.

The next test concerns S. enteritis S1. Nature of the test: organism not typed. Format: cell-based. Particulars: Table 1; S. enteritis S1; broth microdilution; read-out: MIC. On the procedure:
as §1, §2

Values after ≈ are worked out from the molar mass of the structure shown. Bounds are passed on as bounds.

In the case of `CNC(C)C1CCC(N)C(OC2C(N)CC(N)C(OC3OCC(C)(O)C(NC)C3O)C2O)O1` (stereo not drawn) [GEN, gentamicin], the MIC was 1 µg/mL (≈ 2.09 µM) in the test on S. aureus ATCC 29213; above 64 µg/mL with A. baumannii 7979; below 0.06 µg/mL in the test with A. baumannii AB11; 4 µg/mL (≈ 8.38 µM) in the test on E. coli ATCC 25922; above 64 µg/mL with E. faecalis ES01; above 64 µg/mL in the test with E. faecalis J2. Further, the MIC in the test with E. faecalis JH2-2 was 4 µg/mL (≈ 8.38 µM); in the test with E. faecalis SF23-1, 8 µg/mL (≈ 16.8 µM); in the test with E. faecium HFY01, below 0.06 µg/mL; in the test on E. faecium MC38, above 64 µg/mL; with E. faecium QF31, above 64 µg/mL; in the test on K. pneumoniae 9-1, above 64 µg/mL. Also, the MIC with P. aeruginosa PA14 is below 0.06 µg/mL; with P. aeruginosa PAO1, 0.125 µg/mL (≈ 0.262 µM); in the test on S. agalactiae DL03 it was 16 µg/mL (≈ 33.5 µM); with S. aureus M147-2 it was above 64 µg/mL; in the test with S. aureus M92-1 it was above 64 µg/mL; in the test on S. aureus YZSA-15, 0.5 µg/mL (≈ 1.05 µM). Further, the MIC in the test with S. aureus YZSA-21 is 0.5 µg/mL (≈ 1.05 µM); with S. aureus YZSA-24 it was 1 µg/mL (≈ 2.09 µM); with S. pyogenes DL02, 1 µg/mL (≈ 2.09 µM); in the test with S. suis SH0918, 16 µg/mL (≈ 33.5 µM); in the test with S. suis P1/7 it was 4 µg/mL (≈ 8.38 µM); in the test on S. enteritis S1, 0.25 µg/mL (≈ 0.523 µM).

Turning to `CC1(C)S[C@@H]2[C@H](NC(=O)[C@H](N)c3ccccc3)C(=O)N2[C@H]1C(=O)O` [AMP, Ampicillin], the MIC in the test on S. aureus ATCC 29213 is 1 µg/mL (≈ 2.86 µM); in the test on A. baumannii 7979 it was above 64 µg/mL; in the test on A. baumannii AB11, below 0.06 µg/mL; with E. coli ATCC 25922, 2 µg/mL (≈ 5.72 µM); in the test on E. faecalis ES01, 16 µg/mL (≈ 45.8 µM); in the test with E. faecalis J2, 16 µg/mL (≈ 45.8 µM). The MIC in the test on E. faecalis JH2-2 was 16 µg/mL (≈ 45.8 µM); with E. faecalis SF23-1, 16 µg/mL (≈ 45.8 µM); in the test with E. faecium HFY01, 1 µg/mL (≈ 2.86 µM); in the test on E. faecium MC38, 32 µg/mL (≈ 91.6 µM); in the test on E. faecium QF31, 32 µg/mL (≈ 91.6 µM); with K. pneumoniae 9-1, above 64 µg/mL. Moreover, the MIC in the test on P. aeruginosa PA14 is above 64 µg/mL; in the test with P. aeruginosa PAO1 it was above 64 µg/mL; with S. agalactiae DL03, 0.25 µg/mL (≈ 0.715 µM); with S. aureus M147-2 it was 16 µg/mL (≈ 45.8 µM); in the test with S. aureus M92-1, 16 µg/mL (≈ 45.8 µM); in the test with S. aureus YZSA-15, 2 µg/mL (≈ 5.72 µM). Further, the MIC is 1 µg/mL (≈ 2.86 µM) with S. aureus YZSA-21; above 64 µg/mL with S. aureus YZSA-24; 0.5 µg/mL (≈ 1.43 µM) with S. pyogenes DL02; 0.25 µg/mL (≈ 0.715 µM) in the test with S. suis SH0918; 0.5 µg/mL (≈ 1.43 µM) in the test with S. suis P1/7; 32 µg/mL (≈ 91.6 µM) in the test on S. enteritis S1.

These data come from PMC12203862, “BroadAMP-GPT: AI-Driven generation of broad-spectrum antimicrobial peptides for combating multidrug-resistant ESKAPE pathogens” (Gut Microbes, 2025).
